This is an account of results in patent US11780845B2 (Relay Therapeutics, Inc., priority 2019, dated 2023).

The structures appear in SMILES notation. pIC50: −log10 of the molar value.

The subject of one assay is SNU16 cells. The assay is described as follows: SNU16 Cancer Cell Line Proliferation Assay. It counts as cell-based. Conditions: Homo sapiens; SNU-16 cells. As for the experimental part: Compounds of the present invention were also tested in a SNU16 Cancer Cell Line Proliferation Assay, Test compounds were prepared in a 10 mM DMSO stock solution. 45 uL of stock solution was transferred to a 384 well plate, and a 3-fold 11-point dolution was performed. SNU16 cells in a 384 well cell culture plate were seeded and incubated at 37 degrees for 24 hours. 40 nL of each concentration of compound was transferred from the compound plate to a corresponding well in the cell culture plate by Echo550 liquid handler. The plates were incubated for 96 hours, then equilibrated to room temperature for 15 minutes. 20 uL of CellTiter Glo reagent is added into each well, then the plate was shaken gently for 30 minutes at room temperature. Chemiluminescence was then read on an EnVision reader.

For the next assay, the target named is FGFR2 (Homo sapiens (Human), UniProt P21802). In words: FGFR2 Biochemical Caliper Assay. As for the experimental part:
Compounds of the present invention were also tested in a FGFR2 Biochemical Caliper Assay. Compounds were prepared in 10 mM DMSO solution and serially diluted into 11 concentrations by 3-fold dilution. […] 5 uL of ATP solution (100 uM) was added to start the reaction and the plate was incubated for 90 minutes, then 70 uL of stopping buffer (0.5M EDTA) was added to terminate the reaction. Each well was analyzed using EZ reader.

The term pIC50 denotes −log10 of the IC50, conventionally taken in molar units. Lower therefore signals a high IC50.

FGFR2, sequence (P21802 22-821): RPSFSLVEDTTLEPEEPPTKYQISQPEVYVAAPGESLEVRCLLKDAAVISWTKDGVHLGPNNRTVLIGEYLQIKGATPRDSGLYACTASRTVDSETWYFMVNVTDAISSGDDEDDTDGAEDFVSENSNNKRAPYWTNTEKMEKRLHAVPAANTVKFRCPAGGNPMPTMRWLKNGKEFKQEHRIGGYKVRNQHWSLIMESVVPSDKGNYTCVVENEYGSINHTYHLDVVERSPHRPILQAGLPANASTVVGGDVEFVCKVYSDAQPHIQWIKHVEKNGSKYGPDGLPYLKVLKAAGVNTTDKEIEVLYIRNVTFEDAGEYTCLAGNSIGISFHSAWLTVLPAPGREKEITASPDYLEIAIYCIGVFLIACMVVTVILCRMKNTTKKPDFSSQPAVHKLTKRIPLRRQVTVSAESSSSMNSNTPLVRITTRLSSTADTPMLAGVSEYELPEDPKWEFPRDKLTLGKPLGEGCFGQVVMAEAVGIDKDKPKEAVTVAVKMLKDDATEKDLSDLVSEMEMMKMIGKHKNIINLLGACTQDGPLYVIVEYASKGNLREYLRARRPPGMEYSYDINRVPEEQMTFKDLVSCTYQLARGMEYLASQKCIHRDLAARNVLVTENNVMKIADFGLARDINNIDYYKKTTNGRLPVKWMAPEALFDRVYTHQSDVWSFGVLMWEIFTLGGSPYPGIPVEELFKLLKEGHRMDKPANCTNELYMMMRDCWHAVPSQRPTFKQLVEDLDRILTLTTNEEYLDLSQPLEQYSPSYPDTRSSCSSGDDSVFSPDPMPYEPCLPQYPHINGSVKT

Turning to `C=CC(=O)Nc1ccc(-c2c(-c3ccc(Oc4ncc(F)cn4)c(OC)c3)c3c(N)ncnc3n2C)cc1` [Example 101], the negative-log IC50 (pIC50) in the assay with SNU16 cells was no less than 7.00; on FGFR2, greater than 7.00.
As to `C=CC(=O)Nc1ccc(-c2c(-c3ccc(Oc4ncc(Cl)cn4)cc3)c3c(N)ncnc3n2C)cc1` [Example 103], the results for the negative-log IC50 (pIC50) in the assay on SNU16 cells and against FGFR2 were no less than 7.00 and greater than 7.00, respectively.
The corresponding values for `C=C(C)C(=O)Nc1ccc(-c2c(-c3cc(F)c(Oc4ncccn4)c(F)c3)c3c(N)ncnc3n2C)cc1` [Example 110] are no less than 7.00 and greater than 7.00.
On to `C=CC(=O)Nc1ccc(-c2c(-c3ccc(Oc4ncc(C(F)F)cn4)c(OC)c3)c3c(N)ncnc3n2C)cc1` [Example 113], for which the negative logarithm of the IC50 (pIC50) in the assay with SNU16 cells was no less than 7.00; against FGFR2, greater than 7.00.
On to `C=C(C)C(=O)Nc1ccc(-c2c(-c3ccc(Oc4ccc(F)cn4)c(F)c3)c3c(N)ncnc3n2C)cc1` [Example 114], for which the negative-log IC50 (pIC50) was 6.60 to 7.00 with SNU16 cells and 6.00 to 6.60 against FGFR2.
In the same order, the values of `C=C(C)C(=O)Nc1ccc(-c2c(-c3ccc(Oc4ncc(F)cn4)c(F)c3)c3c(N)ncnc3n2C)cc1` [Example 116] are no less than 7.00 and greater than 7.00.
For `C=C(C)C(=O)Nc1ccc(-c2c(-c3ccc(Oc4ccc(OC)c(F)n4)cc3)c3c(N)ncnc3n2C)cc1` [Example 117], the negative-log IC50 (pIC50) is 6.60 to 7.00 in the assay with SNU16 cells and 6.00 to 6.60 against FGFR2.
In the same order, the values of `C=CC(=O)Nc1ccc(-c2c(-c3cc(C)c(Oc4ncccn4)c(OC)c3)c3c(N)ncnc3n2C)cc1` [Example 120] are no less than 7.00 and greater than 7.00.
Regarding `C=CC(=O)Nc1ccc(-c2c(-c3ccc(Oc4ccc(Cl)c(C)n4)cc3)c3c(N)ncnc3n2C)cc1` [Example 123], the negative logarithm of the IC50 (pIC50) in the assay on SNU16 cells is no less than 7.00; against FGFR2, greater than 7.00.
The corresponding values for `C=CC(=O)Nc1ccc(-c2c(-c3ccc(C(=O)N4CCCC4)cc3)c3c(N)ncnc3n2C)cc1` [Example 128] are no less than 7.00 and greater than 7.00.
The corresponding values for `C=C(C)C(=O)Nc1ccc(-c2c(-c3ccc(C(=O)N4CC(C)C4)cc3)c3c(N)ncnc3n2C)cc1` [Example 135] are 6.60 to 7.00 and 6.00 to 6.60.
In the same order, the values of `C=C(C)C(=O)Nc1ccc(-c2c(-c3ccc(C(=O)N4CCC(F)(F)C4)cc3)c3c(N)ncnc3n2C)cc1` [Example 137] are no less than 7.00 and 6.00 to 6.60.
As to `C=C(C)C(=O)Nc1ccc(-c2c(-c3ccc(Cn4nc(C)cc4C)cc3)c3c(N)ncnc3n2C)cc1` [Example 140], the negative-log IC50 (pIC50) in the assay with SNU16 cells was 6.60 to 7.00; at FGFR2 it was 6.00 to 6.60.
Consider `C=C(C)C(=O)Nc1ccc(-c2c(-c3ccc(C(=O)N4CCCCC4)cc3)c3c(N)ncnc3n2C)cc1` [Example 141], for which the figures for the negative logarithm of the IC50 (pIC50) in the assay on SNU16 cells and against FGFR2 were no less than 7.00 and greater than 7.00, respectively.
`C=C(C)C(=O)Nc1ccc(-c2c(-c3ccc(C(=O)N(C)C)nc3)c3c(N)ncnc3n2C)cc1` [Example 143]: the pIC50 is 6.00 to 6.60 in the assay on SNU16 cells and 4.00 to 6.00 at FGFR2.
As to `C=CC(=O)Nc1ccc(-c2c(-c3ccc(Oc4ccn(C)n4)c(OC)c3)c3c(N)ncnc3n2C)cc1` [Example 145], the pIC50 is no less than 7.00 with SNU16 cells and greater than 7.00 against FGFR2.
As to `C=CC(=O)Nc1ccc(-c2c(C3=CCC(C(=O)NC)CC3)c3c(N)ncnc3n2C)cc1` (stereo not drawn) [Example 148], the pIC50 is no less than 7.00 with SNU16 cells and greater than 7.00 at FGFR2.
Regarding `C=C(C)C(=O)Nc1ccc(-c2c(-c3ccc(S(=O)(=O)C4CCCC4)cc3)c3c(N)ncnc3n2C)cc1` [Example 150], the negative-log IC50 (pIC50) with SNU16 cells was no less than 7.00; against FGFR2, greater than 7.00.
Regarding `C=C(C)C(=O)Nc1ccc(-c2c(-c3ccc(C(=O)N(C)C)cc3)c3c(N)ncnc3n2C)cc1` [Example 152], the negative-log IC50 (pIC50) in the assay with SNU16 cells and against FGFR2 was 6.00 to 6.60 in each case.
On to `C=C(C)C(=O)Nc1ccc(-c2c(-c3ccc(C(=O)N4CC5CCCC5C4)cc3)c3c(N)ncnc3n2C)cc1` (stereo not drawn) [Example 154], for which the values for the pIC50 with SNU16 cells and on FGFR2 were no less than 7.00 and 6.60 to 7.00, respectively.
The corresponding values for `CC#CC(=O)Nc1ccc(-c2c(-c3ccc(C(=O)N4CCCC4)cc3)c3c(N)ncnc3n2C)cc1` [Example 155] are no less than 7.00 and greater than 7.00.
In the same order, the values of `C=C(C)C(=O)Nc1ccc(-c2c(-c3ccc(C(=O)N4CCCC4)c(OC)c3)c3c(N)ncnc3n2C)cc1` [Example 156] are 6.60 to 7.00 and 6.00 to 6.60.
As to `C=C(C)C(=O)Nc1ccc(-c2c(-c3ccc(C(=O)N4CCC(O)C4)cc3)c3c(N)ncnc3n2C)cc1` (stereo not drawn) [Example 157], the pIC50 with SNU16 cells and at FGFR2 was 6.00 to 6.60 in each case.
For `C=C(C)C(=O)Nc1ccc(-c2c(-c3ccc([S+]([O-])C4CC4)cc3)c3c(N)ncnc3n2C)cc1` (stereo not drawn) [Example 160], the negative logarithm of the IC50 (pIC50) in the assay with SNU16 cells and at FGFR2 was 6.00 to 6.60 in each case.
Take `C=CC(=O)Nc1ccc(-c2c(-c3ccc(C(=O)N4CCCC4)c(OC)c3)c3c(N)ncnc3n2C)cc1` [Example 161]: the pIC50 is no less than 7.00 in the assay on SNU16 cells and greater than 7.00 at FGFR2.
In the same order, the values of `C=C(C)C(=O)Nc1ccc(-c2c(-c3cncc(N4CCOCC4)c3)c3c(N)ncnc3n2C)cc1` [Example 166] are 6.00 to 6.60 and 4.00 to 6.00.
The corresponding values for `C=C(C)C(=O)Nc1ccc(-c2c(-c3ccc(Oc4cccc(F)c4)nc3)c3c(N)ncnc3n2C)cc1` [Example 167] are 6.60 to 7.00 and 4.00 to 6.00.
As for `C=C(C)C(=O)Nc1ccc(-c2c(-c3ccc(Oc4cccc(C(F)(F)F)c4)nc3)c3c(N)ncnc3n2C)cc1` [Example 169], the pIC50 is 6.00 to 6.60 with SNU16 cells and 4.00 to 6.00 on FGFR2.
The corresponding values for `C=CC(=O)Nc1ccc(-c2c(C3=CCC(NC(C)=O)CC3)c3c(N)ncnc3n2C)cc1` (stereo not drawn) [Example 171] are 6.00 to 6.60 and 6.60 to 7.00.
As to `C=CC(=O)Nc1ccc(-c2c(-c3ccc(OC4CCOC4)c(C)c3)c3c(N)ncnc3n2C)cc1` (stereo not drawn) [Example 174], the figures for the pIC50 with SNU16 cells and against FGFR2 were no less than 7.00 and greater than 7.00, respectively.
In the case of `C=C(C)C(=O)Nc1ccc(-c2c(-c3ccc(C(=O)N4CCOCC4)cc3)c3c(N)ncnc3n2C)cc1` [Example 176], the negative-log IC50 (pIC50) is 6.00 to 6.60 in the assay on SNU16 cells and 4.00 to 6.00 against FGFR2.
The corresponding values for `C=C(C)C(=O)Nc1ccc(-c2c(-c3ccc4sc(C(=O)N(C)C)cc4c3)c3c(N)ncnc3n2C)cc1` [Example 180] are 6.60 to 7.00 and 6.00 to 6.60.
`C=C(C)C(=O)Nc1ccc(-c2c(-c3ccc(N4CCCCC4=O)cc3)c3c(N)ncnc3n2C)cc1` [Example 186]: the negative logarithm of the IC50 (pIC50) was 6.00 to 6.60 in the assay with SNU16 cells and 4.00 to 6.00 at FGFR2.
As to `C=C(C)C(=O)Nc1ccc(-c2c(-c3ccc(CN4CCOCC4=O)cc3)c3c(N)ncnc3n2C)cc1` [Example 188], the pIC50 was 6.00 to 6.60 in the assay with SNU16 cells and 4.00 to 6.00 on FGFR2.
The corresponding values for `C=C(C)C(=O)Nc1ccc(-c2c(-c3ccc(C(=O)N4CCCCC4C)cc3)c3c(N)ncnc3n2C)cc1` (stereo not drawn) [Example 189] are no less than 7.00 and greater than 7.00.
In the same order, the values of `C=C(C)C(=O)Nc1ccc(-c2c(-c3ccc(C(=O)N4CCC(C)CC4)cc3)c3c(N)ncnc3n2C)cc1` [Example 190] are 6.00 to 6.60 and 4.00 to 6.00.
The corresponding values for `C=C(C)C(=O)Nc1ccc(-c2c(-c3ccc(N4CCNC4=O)cc3)c3c(N)ncnc3n2C)cc1` [Example 194] are 6.00 to 6.60 and 6.00 to 6.60.
For `C=C(C)C(=O)Nc1ccc(-c2c(C3CCN(C(=O)N4CCCC4)CC3)c3c(N)ncnc3n2C)cc1` [Example 197], the negative-log IC50 (pIC50) with SNU16 cells was 6.00 to 6.60; at FGFR2 it was 4.00 to 6.00.
Regarding `C=C(C)C(=O)Nc1ccc(-c2c(-c3ccc(-c4ccon4)cc3)c3c(N)ncnc3n2C)cc1` [Example 199], the negative-log IC50 (pIC50) with SNU16 cells and against FGFR2 was 6.00 to 6.60 each time.
Regarding `C=C(C)C(=O)Nc1ccc(-c2c(C3=CCC(C(=O)NC)CC3)c3c(N)ncnc3n2C)cc1` (stereo not drawn) [Example 201], the pIC50 with SNU16 cells was 6.00 to 6.60; against FGFR2 it was 4.00 to 6.00.
The corresponding values for `C=C(C)C(=O)Nc1ccc(-c2c(-c3ccc(OC4CCOC4)c(C)c3)c3c(N)ncnc3n2C)cc1` (stereo not drawn) [Example 202] are 6.60 to 7.00 and 6.00 to 6.60.
For `CN(C)C/C=C/C(=O)Nc1ccc(-c2c(-c3ccc(C(=O)N4CCCC4)cc3)c3c(N)ncnc3n2C)cc1` [Example 206], the negative-log IC50 (pIC50) with SNU16 cells is 6.60 to 7.00; at FGFR2, greater than 7.00.
The corresponding values for `C=C(C)C(=O)Nc1ccc(-c2c(-c3ccc4c(c3)CCCN4C)c3c(N)ncnc3n2C)cc1` [Example 207] are 6.00 to 6.60 and 6.00 to 6.60.
The corresponding values for `C=C(C)C(=O)Nc1c(F)cc(-c2c(-c3ccc(C(=O)N4CCCC4)cc3)c3c(N)ncnc3n2C)cc1F` [Example 210] are 6.00 to 6.60 and 4.00 to 6.00.
The corresponding values for `C=CC(=O)Nc1ccc(-c2c(-c3ccc4c(c3)CCCN4C)c3c(N)ncnc3n2C)cc1` [Example 211] are no less than 7.00 and greater than 7.00.
In the case of `C=C(C)C(=O)Nc1ccc(-c2c(-c3ccc(C(=O)NC4CCCC4)cc3)c3c(N)ncnc3n2C)cc1` [Example 212], the values for the negative-log IC50 (pIC50) with SNU16 cells and at FGFR2 were no less than 7.00 and greater than 7.00, respectively.
As to `C=CC(=O)Nc1ccc(-c2c(-c3ccc(C(=O)N4CCCC4)cc3)c3c(N)ncnc3n2C)c(F)c1` [Example 213], the negative-log IC50 (pIC50) in the assay with SNU16 cells is no less than 7.00; against FGFR2, greater than 7.00.
In the same order, the values of `C=C(C)C(=O)Nc1ccc(-c2c(-c3ccc(C(=O)N4CCCC4)cc3)c3c(N)ncnc3n2C)cc1F` [Example 215] are 6.00 to 6.60 and 6.00 to 6.60.
